Measured values as given in patent US20210330611A1, “THERAPY FOR NEUROLOGICAL DISEASES/DISORDERS” (priority 2020, published 2021).

Experiments:
intracellular GSH = format: cell-based, mouse
Description: Real-time imaging of glutathione. The real-time GSH dynamics in living BMDMs was determined with the fluorescent GSH probe, RealThiol RT-AM as described (37). Cells were plated on 2-well chamber slide (Nunc) pre-coated with 25 μg/ml fibrin. Cells were stimulated with fibrin with or without 5 μM acivicin or GGsTop. The GSH synthesis inhibitor, buthionine sulfoximine (BSO, Sigma-Aldrich) was used as positive control for reducing intracellular GSH levels at 100 μM. After 24 h incubation, cells were loaded with 1 μM RT-AM probe and were incubated for 5 min before imaging. The cells were kept at 37° C. during the entire experiment. […] For each independent experiment, laser power and detector settings were set using the control/untreated cells incubated with RT-AM alone as reference. All settings were kept constant throughout the experiment. […] The ratio calculated for each treatment was expressed as percentage from that of the untreated cells (control).

[1] = test system: proinflammatory gene expression; assay: qRT-PCR of spinal cord extracts of MOG35-55 EAE mice; format: in vivo, mouse; settings: FIG. 7h
GGT = GGT activity in spinal cord of MOG35-55 EAE mice; format: in vivo, mouse; settings: FIG. 7e
Description: GGT activity assay. GGT activity was measured using the MaxDiscovery gamma-Glutamyl Transferase (GGT) Enzymatic Assay Kit (Bioo Scientific) according to the manufacturer's protocol. […]. For in vivo GGT activity assay, spinal cord tissues from the onset of MOG35-55 EAE or LPS-injected substantia nigra area at 12 h were prepared. Tissues were homogenized in 0.1 M Tris-HCl and centrifuged at 13,000 g for 30 min at 4° C. The supernatant was collected and subsequently assessed for GGT activity. The absorbance at 405 nm was detected with a SpectraMax M5 microplate reader (Molecular Devices) with SoftMax Pro 5.2 software (Phoenix Technologies Ltd.). The GGT activity in IU/1 was calculated following the manufacturer's protocol by multiplying the average increase in absorbance at 405 nm over 10 min GGT activity was also measured using a fluorescent probe, ProteoGREEN-gGlu (Goryo Chemical, Hokkaido, Japan), according to the manufacturer's protocol. Cultured BMDMs were plated on 96-well, black μ-clear-bottom microtiter plates (Greiner Bio-One) pre-coated with 25 μg/ml fibrin. […] The fluorescence intensity (excitation/emission filter pairs of 488 nm/520 nm) was measured using a SpectraMax M5 microplate reader (Molecular Devices) with SoftMax Pro 5.2 software (Phoenix Technologies).

microglia = format: in vivo, mouse; settings: healthy mice, 14 days, FIG. 12
Description: FIGS. 12A-E. Effects of acivicin on microglia, macrophage and whole blood cell numbers. a, Representative images showing morphology and density of primary microglia treated with vehicle or acivicin for 48 h stained with nuclei marker Hoechst or CellMask Red Whole Cell Stain. Quantification of the total number of microglia. Data are representative of one experiment with technical replicates (open symbols). b, Representative confocal images showing morphology and density of control- and acivicin-treated BMDMs treated for 24 h. Scale bar, 100 μm. Insets depict digitally zoomed in areas of regions of interest. Quantification of the total number of BMDMs in the field of view. […] Cell viability of single CD45^+ cells was assessed by Sytox blue live/dead nuclei stain. Quantification of percent cell viability of CD45^+ BMDMs treated with acivicin or left untreated. Data are from 2 independent experiments with n=4 mice per group (mean±s.d.). d, Quantification of complete blood count analysis of white blood cells (WBCs), red blood cells (RBC), platelets (PLT) (left) and composition of WBCs (right) of blood samples from healthy mice treated with saline or acivicin for 10 days. […] Quantification of total microglia cell numbers in healthy mice treated with acivicin or saline. […]

naïve CD4+ T cells = assay: Non-antigen-specific T-cell proliferation (anti-CD3/CD28); format: cell-based, mouse; settings: 5, 0.5 or 0.05 μM, FIG. 14G, H
Description: T-cell proliferation assay. For antigen-specific T cell proliferation, näive CD4+ T cells were magnetically sorted from the TCR-transgenic 2D2 mice using naïve CD4+ T cell isolation kits (Miltenyi Biotec). […]. For non-antigen-specific T cell proliferation, naïve CD4^+ T cells were treated with acivicin and stimulated with mouse T-activator CD3/CD28 Dynabeads (Thermo Fisher Scientific) for 3 d. Cells were then fixed, permeabilized, and stained with FITC-conjugated anti-BrdU (BrdU Flow Kits, BD Biosciences).

Compound: N[C@H](C(=O)O)[C@@H]1CC(Cl)=NO1 [Acivicin, (2S)-2-amino-2-[(5S)-3-chloro-4,5-dihydro-1,2-oxazol-5-yl] acetic acid]
- fibrin-induced degradation of glutathione (RealThiol F405/F488) (intracellular GSH): inhibited
- proinflammatory gene expression [1]: markedly reduced
- GGT activity in the EAE spinal cord (GGT): decreased
- microglia numbers in the spinal cord in vivo (microglia): did not affect
- T cell proliferation (BrdU) without APCs, anti-CD3 and anti-CD28 (naïve CD4+ T cells): only in the presence of APCs
